This note sets out measurements from ChEMBL document CHEMBL3808339, “Identification, synthesis and evaluation of SARS-CoV and MERS-CoV 3C-like protease inhibitors” (Bioorg Med Chem, 2016).

SMILES strings stand for the structures.

For experiment [1], the target named is Replicase polyprotein 1ab (Severe acute respiratory syndrome-related coronavirus, UniProt P0C6X7).
The next experiment addresses Neuraminidase (Influenza A virus, UniProt B4URF0). Put plainly: Inhibition of Influenza A virus H5N1 neuraminidase preincubated for 10 mins followed by addition of 2'-(4-methylumbelliferyl)-alpha-D-N-acetylneuraminic acid as fluorogenic substrate measured after 15 mins by fluorescence analysis.

Neuraminidase, sequence (B4URF0 whole entry): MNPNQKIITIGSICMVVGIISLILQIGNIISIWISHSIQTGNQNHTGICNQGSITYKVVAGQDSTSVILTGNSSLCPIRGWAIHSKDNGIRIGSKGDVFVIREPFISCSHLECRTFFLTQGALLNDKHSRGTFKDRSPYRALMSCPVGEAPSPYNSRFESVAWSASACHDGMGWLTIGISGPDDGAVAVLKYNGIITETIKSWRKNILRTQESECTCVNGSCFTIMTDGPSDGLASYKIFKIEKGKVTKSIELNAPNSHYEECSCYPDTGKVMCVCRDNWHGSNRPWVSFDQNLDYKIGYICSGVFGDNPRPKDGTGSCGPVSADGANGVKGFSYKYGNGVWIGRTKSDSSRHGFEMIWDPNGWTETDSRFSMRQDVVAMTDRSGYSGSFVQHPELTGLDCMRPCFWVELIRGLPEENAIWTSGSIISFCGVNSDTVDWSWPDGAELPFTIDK

In the case of `CC(C)(C)c1ccc(N2N=C(c3ccccc3)/C(=C/c3ccc(-c4cc(Cl)ccc4C(=O)O)o3)C2=O)cc1`, the IC50 (commonly the point on the concentration scale where inhibition reaches its midpoint) in experiment [1] stood at 5.8 µM. Consider `O=C(O)c1ccc(Cl)cc1-c1ccc(/C=C2\C(=O)N(c3ccc(F)cc3)N=C2c2ccccc2)o1`, for which the IC50 against Neuraminidase stood at 2.9 µM; in experiment [1], 20.2 µM.

The molecule `O=C(O)c1cccc(N2N=C(c3ccccc3)/C(=C/c3ccc(-c4cc(Cl)ccc4C(=O)O)o3)C2=O)c1` had an IC50 in experiment [1] of 44.7 µM. For `COc1ccc(N2N=C(c3ccccc3)/C(=C/c3ccc(-c4ccccc4C(=O)O)o3)C2=O)cc1`, the IC50 in experiment [1] came to 30.7 µM. The same measure, in the same setting: for `CC1=NN(c2cccc(C(=O)O)c2)C(=O)/C1=C\c1ccc(-c2ccccc2)o1` the value was more than 50 µM.

The molecule `N#Cc1ccc(N2N=C(c3ccccc3)/C(=C/c3ccc(-c4ccccc4C(=O)O)o3)C2=O)cc1` registered an IC50 in experiment [1] of 18.7 µM. `CC(C)c1ccc(N2N=C(c3ccccc3)/C(=C/c3ccc(-c4ccccc4C(=O)O)o3)C2=O)cc1` displayed a 50% inhibitory concentration (IC50) in experiment [1] of 11.7 µM.

Consider `CC(C)(C)c1ccc(N2N=C(c3ccccc3)/C(=C/c3ccc(-c4ccccc4C(=O)O)o3)C2=O)cc1`, for which the half-inhibitory concentration (IC50) in experiment [1] was 8.6 µM. Take `O=C(O)c1cccc(N2N=C(c3ccccc3)/C(=C/c3ccco3)C2=O)c1`: in experiment [1], the IC50 is more than 50 µM.

As for `O=C(O)c1cccc(N2N=C(c3ccccc3)/C(=C/c3ccc(-c4ccccc4)o3)C2=O)c1`, the IC50 in experiment [1] was 6.4 µM.

Regarding `CC1=NN(c2ccccc2)C(=O)/C1=C\c1ccc(-c2cc(Cl)ccc2C(=O)O)o1`, in experiment [1], the half-maximal inhibitory concentration (IC50) was more than 50 µM. The molecule `O=C1/C(=C\c2ccc(-c3ccccc3)o2)C(c2ccccc2)=NN1c1ccccc1` registered an IC50 in experiment [1] of more than 50 µM. For `O=C(O)c1cccc(N2N=C(C(F)(F)F)/C(=C/c3ccc(-c4cc(Cl)ccc4C(=O)O)o3)C2=O)c1`, in experiment [1], the IC50 is more than 50 µM. Take `O=C(O)c1ccccc1-c1ccc(/C=C2\C(=O)N(c3ccc(F)cc3)N=C2c2ccccc2)o1`: in experiment [1], the IC50 was found to be 37.5 µM. In the case of `O=C(O)c1ccc(Cl)cc1-c1ccc(/C=C2\C(=O)N(c3ccccc3)N=C2c2ccccc2)o1`, the IC50 on Neuraminidase turned out to be 2.8 µM; in experiment [1], 16.4 µM. For `O=C(O)c1ccccc1-c1ccc(/C=C2\C(=O)N(c3ccccc3)N=C2c2ccccc2)o1`, the half-inhibitory concentration (IC50) was determined as 13.7 µM against Neuraminidase and 41.2 µM in experiment [1]. For the molecule `CC1=NN(c2cccc(C(=O)O)c2)C(=O)/C1=C\c1ccc(-c2cc(Cl)ccc2C(=O)O)o1`, the IC50 in experiment [1] was more than 50 µM.
